US20250235429A1, “TREATMENT OF DISEASES VIA ADMINISTRATION OF BUNTANETAP AND AN ANTIDIABETIC AGENT” (ANNOVIS BIO, INC., priority 2024, published 2025)

Assays:
[1] = in vivo; cited from earlier work
[2] = tested on: hippocampal slices APP/PS1 transgenic mice; test: Electrophysiological study: long-term potentiation (LTP) in hippocampal slices; type: in vivo
Experimental: (§1) Animals: Heterozygous double transgenic mice expressing both human APP (K670N:M671L) and human PS1 (M146L) (line 6.2) and their wild-type non-transgenic littermates, both males and females, were used for these experiments. They were obtained by a breeding colony maintained at the animal facility of Columbia University. They were genotyped through PCR on tail samples. Animals were injected i.p. from the age of […] for 1 month prior to starting behavioral assessment which lasted for 2 weeks during which treatment continued. Behavioral assessment examined spatial and associative memory. Finally, mice were sacrificed for electrophysiological assessment of synaptic function.
(§2) Mice were coded to blind investigators with respect to genotype and treatment. Results were expressed with Standard Error of the Mean (SEM). Level of significance was set for p<0.05. Results were analyzed by ANOVA analysis with post-hoc correction with the combination or genotype as main effect. Experiments were designed in a balanced fashion, and mice were trained and tested at each of the different conditions in 3 or 4 separate experiments.
Mice were i.p. injected with the drug from the age of 8 weeks prior to plaque appearance until euthanasia for collecting slices at the age of 14-16 weeks. The treatment with Buntanetap was daily, whereas the treatment with dulaglutide was twice a week.
Electrophysiological analysis was performed on 400 μm hippocampal slices, cut with a tissue chopper and maintained in an interface chamber at 29° C. for 90 min prior to recording. Briefly, CA1 fEPSPs were recorded by placing both the stimulating and the recording electrodes in CA1 stratum radiatum. Basal synaptic transmission was assayed, either by plotting the stimulus voltages against slopes of fEPSP, or by plotting the peak amplitude of the fiber volley against the slope of the fEPSP. For LTP experiments, a 15 min baseline was recorded every min at an intensity that evokes a response ˜35% of the maximum evoked response. LTP was induced using θ-burst stimulation (4 pulses at 100 Hz, with the bursts repeated at 5 Hz and each tetanus including 3 ten-burst trains separated by 15 see). Data was subjected to statistical analyses to determine the effects of combination on inhibiting synaptic dysfunction.

APP/PS1 transgenic mice [3] = test: 2-day radial arm water maze (RAWM), spatial memory; type: in vivo
Experimental: as §1, §2
Mice were i.p. injected with the drug from the age of 8 weeks prior to plaque appearance until behavioral assessment that started at 12 weeks of age and lasted for 2 weeks.
Spatial memory was studied with the 2-day radial arm water maze (RAWM) test. The task is a hybrid of the Morris Water Maze (MWM) and the radial arm land maze. The motivation for the animals is immersion in water. The mouse needs to swim in 6 alleys (arms) radiating from a central area until it finds a hidden (submerged) platform at the end of one of the arms, based on visual cues placed in the room. In the old RAWM version of the task, the goal arm varies from day to day, requiring 21 days of training in wild-type mice to reach the learning criterion. In the new version of the task, the goal arm is kept constant for all trials, with a different start arm on successive trials, such that the learning criterion will be reached in 2 days. The first day of the protocol was a training day. Mice were trained to identify the platform location by alternating between a visible and a hidden platform in a goal arm. The final 3 trials on day 1 and all 15 trials on day 2 used a hidden escape platform to force mice to use spatial cues to identify the location of the goal arm. To avoid learning limitations imposed by exhausting practice and to avoid fatigue that may result from consecutive trials, spaced practice training was established by running the mice in cohorts of 4 and alternating different cohorts through the 15 training trials over 3 hours testing periods each day. On day 1, a visible platform was laced in a goal location. Mouse 1 of cohort 1 was gently placed in the pool near the perimeter of the wall of the first start arm (specified on a score sheet) and facing the center of the pool. The number of incorrect arm entries (entries in arms with no platform) was counted. If the animal enters the incorrect arm it was gently pulled back to the start arm. Each trial lasted up to 1 min. Failure to select an arm after 15 sec was counted as an error and the mouse was returned to the start arm. After 1 min, if the platform had not been located, the mouse was guided gently through the water by placing a hand behind it to direct it towards the platform. The mouse rested on the platform for 15 sec. After completing the trial, the mouse was removed from the pool, gently towel dried and placed back into its cage under a heat lamp. The goal platform location was different for each mouse. […] After each mouse from cohort 1 completed six alternating trials between visible and hidden platforms, the mice were left to rest under a heating source, and mice from the second cohort were tested in the same way.

APP/PS1 transgenic mice [4] = test: Contextual fear conditioning (FC), associative memory; type: in vivo; details: Buntanetap 1 mg/Kg and/or dulaglutide 0.1 mg/Kg
Experimental: as §1
Mice were coded to blind investigators with respect to genotype and treatment. Results were expressed with Standard Error of the Mean (SEM). […] Results were analyzed by ANOVA analysis with post-hoc correction with the combination or genotype as main effect. […]
The combination effect on associative memory was assessed through fear conditioning (FC). […] Freezing behavior, defined as the absence of movements except for that needed for breathing, was scored using Noldus software. Contextual fear learning, a type of memory for which hippocampal function is indispensable, was evaluated 24 hrs after training by measuring freezing responses for 5 min in the same chamber where the mice have been trained. […]

[5] = APP/PS1 mice, Buntanetap 1 mg/Kg and/or dulaglutide 0.1 mg/Kg

Row | Substance | onset [1] | % Improvement (Residual Potential) ([2]; APP/PS1, dulaglutide 0.1 mg/kg) [%] | Residual Potential (mean) ([2]; APP/PS1, dulaglutide 0.1 mg/kg i.p. twice a week) | % Improvement (Residual Potential) ([2]; APP/PS1, dulaglutide 0.3 mg/kg) [%] | Residual Potential (mean) ([2]; APP/PS1, dulaglutide 0.3 mg/kg i.p. twice a week) | % Improvement (Residual Potential) ([2]; APP/PS1, dulaglutide 0.6 mg/kg) [%] | Residual Potential (mean) ([2]; APP/PS1, dulaglutide 0.6 mg/kg i.p. twice a week) | impairment of synaptic plasticity measured through Long-term potentiation (LTP) [2, 5] | % Improvement (RAWM errors) (APP/PS1 transgenic mice [3]; APP/PS1, dulaglutide 0.1 mg/kg) [%] | Meran Number of Errors (RAWM) (APP/PS1 transgenic mice [3]; APP/PS1, dulaglutide 0.1 mg/kg) | % Improvement (RAWM errors) (APP/PS1 transgenic mice [3]; APP/PS1, dulaglutide 0.3 mg/kg) [%] | Meran Number of Errors (RAWM) (APP/PS1 transgenic mice [3]; APP/PS1, dulaglutide 0.3 mg/kg) | % Improvement (RAWM errors) (APP/PS1 transgenic mice [3]; APP/PS1, dulaglutide 0.6 mg/kg) [%] | Meran Number of Errors (RAWM) (APP/PS1 transgenic mice [3]; APP/PS1, dulaglutide 0.6 mg/kg) | impairment of short-term spatial memory measured through the 2-day radial arm water maze (RAWM) (APP/PS1 transgenic mice [3]; [5]) | impairment of associative memory measured through contextual fear conditioning (FC) (APP/PS1 transgenic mice [4]) | peak concentration occurs after administration [1] [h]
1 | Insulin glulisine: insulin commercially available as Apidra® | 5 to 15 min |  |  |  |  |  |  |  |  |  |  |  |  |  |  |  | 
2 | dulaglutide: GLP-1 agonist, commercially available as Trulicity® |  | 21.4 | 155.52 | 32.3 | 164.68 | 71.1 | 197.26 | did not ameliorate | 23.5 | 2.9 | 47.1 | 2.5 | 88.2 | 1.8 | did not ameliorate | did not ameliorate | 
3 | Insulin detemir | about 1 hours |  |  |  |  |  |  |  |  |  |  |  |  |  |  |  | 3 to 14
